Measurements from US20260053767A1, “Hepatoprotective Compositions And Methods” (Jemyll, Ltd., priority 2022, published 2026).

Experiments:
Format in all cases: cell-based
SIRT3 = SIRT3 in endothelial cells; conditions: EOMA endothelial cells
Description: (§1) To that end, the inventors used endothelial cells (EOMA cells) and liver cells (AML-12 cells) in vitro and quantified various markers in response to exposure of the cells to environmental challenge in the presence and absence of DDA at low concentrations. Unless indicated otherwise, the DDA concentration in the in vitro experiments was 5 mcg per microliter. More specifically, the inventors measured p-H2AX protein levels as a marker for DNA damage, PGC-1α protein levels as a marker for mitochondrial biogenesis, NAMPT enzyme levels as a marker for potential for NAD+ production, and total antioxidant capacity as a marker of cellular health. In addition, the inventors also measured global SIRT activity as a gauge of activity for all SIRT enzymes, and in particular SIRT1 enzyme levels as markers for autophagy and various beneficial processes associated with a caloric restricted diet, and SIRT3 levels as markers for mitochondrial function and longevity.
In yet a further series of experiments, the inventors also sought to confirm whether or not DDDA would have a modulatory effect in endothelial cells using the same markers and experimental conditions as noted above.
N=5-6 plates per treatment.

SIRT enzymes = experiment: Global SIRT activity in liver cells; conditions: AML-12 liver cells
Description: as §1
In still further experiments, the liver cells were also tested for global SIRT activity and exemplary results are shown in FIG. 6.

[1] = system: liver cells (AML-12 cells); experiment: Total antioxidant capacity in liver cells; conditions: AML-12 liver cells, in the presence of hydrogen peroxide
Description: as §1

rat primary HSCs [2] = experiment: HSCs activation by flow cytometry (α-SMA and collagen type I protein expression); conditions: 3 days CM from palmitate-treated hepatocytes, then 1% (w/vol) for 24 hours, without compound 25.15%
Experimental: (§2) A 10% (w/v) FFA-free BSA (Sigma) solution was prepared in ddH2O and maintained at 55° C. in a water bath. 10 mM FFA/1% BSA solution was obtained by complexing the appropriate amount of palmitate stock solution to 10% BSA at 55° C. for another 30 min. The above solution was then cooled to 25° C., filter sterilized and stored at −20° C. until use. Primary hepatocytes were grown in DMEM supplemented with palmitate (0.4 mM). After 24 h. CM was clarified by centrifugation at 6000 g to remove cell debris, sterile filtered with a 0.45 μm pore size membrane filter and stored in aliquots at −20° C. until use.
(§3) Hepatic Stellate cells: Primary hepatic stellate cells were isolated from Wistar rats as described previously (7). In brief, the rats were surgically opened under anesthesia, and the livers were perfused through the IVC with 0.5 mM EGTA, after which the portal vein was cut and the upper IVC was clamped. […] HSCs activation was assessed by flow cytometry by evaluating alpha-smooth muscle Actin (α-SMA) and Collagen type I alpha 1 (COLIA1) protein expression. α-SMA and COLIA1 antibodies were obtained from Thermo Fisher scientific (Waltham, MA). Flow cytometric analysis was conducted with CytoFlex (Beckman Coulter, Brea, CA) and data analyzed with Kaluza software (Beckman Coulter, Brea, CA). […]

rat primary HSCs [3] = experiment: HSCs apoptosis by flow cytometry using propidium iodide staining; conditions: 1% (w/vol)
Experimental: as §2
as §3, with “(7).” for “(7). In brief, the rats were surgically opened under anesthesia, and the livers were perfused through the IVC with 0.5 mM EGTA, after which the portal vein was cut and the upper IVC was clamped.”
Subsequently, protein expression of two established markers of HSCs activation, namely collagen type 1 (COLA1A) and alpha-smooth muscle actin (αSMA), was determined by flow cytometry analysis. […] Next, the inventors analyzed the effect of DODA on HSCs apoptosis. […]

## O=C(O)CCCCCCCCCCC(=O)O [DDDA, dodecanedioic acid]
SIRT3; 24 hours
  SIRT3: significant decline
SIRT3; acute (6-hour data)
  SIRT3: strong and acute increase
SIRT enzymes; 6 hours, in the presence of hydrogen peroxide, p<0.001
  global SIRT activity: increased global SIRT activity in a statistically significant manner
SIRT enzymes; 24 hours, no hydrogen peroxide, same trend, p=0.065
  global SIRT activity: did not reach a level of significance
[1]; 6 hours, 5 mcg per microliter, p=0.001
  cellular total antioxidant capacity: maintains cellular total antioxidant capacity
[1]; 24 hours, same trend as 6 hours
  cellular total antioxidant capacity: did not reach a level of significance
Rat primary HSCs [2]
  expression of COLA1A and α-SMA (flow cytometry): 9.18%
Rat primary HSCs [3]; CM from palmitate-treated hepatocytes, propidium iodide staining
  HSCs apoptosis: induces HSCs apoptosis
Rat primary HSCs [3]; rat primary HSCs, CM from steatotic hepatocytes, without compound 8.39%
  cell death (propidium iodide staining, flow cytometry): 16.16%
